Measurements published in US10815329B2, “Plasticized thermoset resin, and associated cured resin, method of curing, and article comprising cured resin” (The University of Massachusetts, priority 2016, dated 2020).

Legend:
[1] = Solubility of crosslinking agent HMTA in methyl benzoate by proton NMR with duroquinone internal standard; assay type: physicochemical; details: solvent methyl benzoate
Experimental: For compositional analysis, a Bruker 400 megahertz (MHz) NMR instrument was used. The solubility of crosslinking agent, HMTA, in methyl benzoate was measured by using duroquinone as the internal standard.
The high solubility of HMTA results directly from the plasticized phenol-formaldehyde prepolymer. […] J. P. Patel, et al., J. Polym. Sci. Part B: Polym. Phys., 2015, vol. 53, pp. 1519-1526. […] In this scheme methyl benzoate indirectly increases the interaction between the two reactants, the crosslinking agent HMTA and the phenol-formaldehyde prepolymer.

[2] = solvent furfural; cited from earlier work

Compound: C1N2CN3CN1CN(C2)C3 [HMTA, hexamethylenetetramine]
- solubility of HMTA in methyl benzoate (in words) [1]: virtually insoluble
- solubility of HMTA in methyl benzoate ([1]; proton NMR, duroquinone internal standard): no more than 5 milligrams of HMTA per milliliter of methyl benzoate
- solubility of HMTA in furfural [2]: less than two
